Assay results published in patent US20260130932A1, “NOVEL COMBINATION OF RIFAXIMIN AND CLARITHROMYCIN FOR TREATING MULTIDRUG-RESISTANT MYCOBACTERIUM ABSCESSUS” (priority 2022, published 2026).
Structures can show the parent of a compound that is named as a salt.

Tests used:
M. abscessus strain M422 = assay: Single-concentration assay with and without clarithromycin (hit validation); type: cell-based, Mycobacterium abscessus; details: for % inhibition with 0.5 μg/ml Clr: compound combined with clarithromycin; for % inhibition with compound alone: without clarithromycin
Description: For checkerboard synergy assay, 3 M. abscessus strains were used: M. abscessus ATCC 19977, M. abscessus strains M422 and M110, while bactericidal activity determination and the zebrafish study were performed with M. abscessus ATCC 19977. All three strains of M. abscessus harbor the inducible clarithromycin resistance-conferring erm(41) T28 sequevar. M. abscessus strain M422 and M110 were provided by Dr. Jeanette Teo, National University Hospital, Singapore (Chew K L, et al., 2017. J Med Microbiol 66: 1443-1447). M. abscessus ATCC 19977 and M. avium ATCC 700898 were acquired from American Type Culture Collection (ATCC).
Primary screening was carried out in 96-well flat-bottom Corning Costar cell culture plates at 50 μM compound along with 4 μg/ml of Clr in a starting inoculum of pre-induced M. abscessus cells at OD600 of 0.005 in a final volume of 100 μl. The plates were put in an airtight container with moist paper towels and incubated for 4 d at 30° C. The cultures in the wells were resuspended before OD600 was read in a BioTek Synergy 4 plate reader.
To start the validation process, the top 10 compounds with >90% growth inhibition were chose to perform a single-concentration assay, with and without clarithromycin. Finally, the inventors obtained 7 compounds that potentiated Clr efficacy.

[1] = test system: M. abscessus ATCC 19977 (pre-induced); assay: microbe, parasite or virus in culture; type: cell-based, Mycobacterium abscessus; details: for Percentage of bacterial growth: clarithromycin 0 μg/ml
Description: The FICI was calculated by summing the FIC of Rfx and the FIC of Clr. FIC of Clr is the MIC of Clr in the presence of Rfx divided by MIC of Clr alone. FIC of Rfx was similarly calculated.
To characterize the interaction between Clr and Rfx, checkerboard synergy assays were performed on pre-induced Clr-resistant M. abscessus. The fractional inhibitory concentration index (FICI) obtained from the checkerboard assay defines whether the interaction between the two compounds is either synergistic (FICI≤0.5), additive (0.5<FICI≤1.0), indifferent (1.0<FICI≤4.0), or antagonistic (FICI >4.0) (Noel D J, Keevil C W, Wilks S A. 2021. MBio 12).

Molecule	% inhibition with 0.5 μg/ml Clr (M. abscessus strain M422) [%]	% inhibition with compound alone (M. abscessus strain M422) [%]	Percentage of bacterial growth ([1]; partner antibiotic 1 μg/ml) [%]	Percentage of bacterial growth ([1]; partner antibiotic 2 μg/ml) [%]	Percentage of bacterial growth ([1]; partner antibiotic 4 μg/ml) [%]	Percentage of bacterial growth ([1]; partner antibiotic 8 μg/ml) [%]	Percentage of bacterial growth ([1]; partner antibiotic 16 μg/ml) [%]	Percentage of bacterial growth ([1]; partner antibiotic 32 μg/ml) [%]	Percentage of bacterial growth ([1]; partner antibiotic 64 μg/ml) [%]	concentration at which synergistic effects with clarithromycin are exhibited ([1]; Table 3) [µg/mL]	FICI ([1]; clarithromycin with a known partner antibiotic, each 0-64 μg/ml)
OB1OCc2cc(F)ccc21 [AN-2690]	96.7	80.4									
CC(=O)OC[C@H]1O[C@@H]([S-])[C@H](OC(C)=O)[C@@H](OC(C)=O)[C@@H]1OC(C)=O.CCP(CC)CC.[Au+] [Auranofin]	98.5	86.9									
CO/N=C(\C(=O)N[C@@H]1C(=O)N2C(C(=O)O)=C(COC(C)=O)CS[C@H]12)c1csc(N)n1 [Cefotaxime (sodium salt), Cefotaxime]	98.5	86.7									
CO[C@@H]1[C@@H](OC(N)=O)[C@@H](O)[C@H](Oc2ccc3c(O)c(NC(=O)c4ccc(O)c(CC=C(C)C)c4)c(=O)oc3c2C)OC1(C)C [Novobiocin (Sodium), Novobiocin]	99.7	84.1									
CC(=O)NC[C@H]1CN(c2ccc(N3CCSCC3)c(F)c2)C(=O)O1 [Sutezolid]	92.8	80.4									
Cn1nnc(-c2ccc(-c3ccc(N4C[C@H](CO)OC4=O)cc3F)cn2)n1 [Tedizolid]	99.1	85.2									
C[C@@H](O)[C@H]1C(=O)N2C(C(=O)O)=C(SCCN=CN)C[C@H]12 [imipenem]			86.9	93.4	58.5	78.5	62.1	38.3	16.6		
COc1c(N2C[C@@H]3CCCN[C@@H]3C2)c(F)cc2c(=O)c(C(=O)O)cn(C3CC3)c12 [moxifloxacin]			107.8	122.8	86.4	51.2	13.4	7.4	0.6		
CN(C)c1cc(NC(=O)CNC(C)(C)C)c(O)c2c1C[C@H]1C[C@H]3[C@H](N(C)C)C(O)=C(C(N)=O)C(=O)[C@@]3(O)C(O)=C1C2=O [tigecycline]			64.2	74.2	77.8	67.0	39.3	22.4	10.1	≥ 16	0.25
CN[C@H](CC(C)C)C(=O)N[C@H]1C(=O)N[C@@H](CC(N)=O)C(=O)N[C@H]2C(=O)N[C@H]3C(=O)N[C@H](C(=O)N[C@H](C(=O)O)c4cc(O)cc(O)c4-c4cc3ccc4O)[C@H](O)c3ccc(c(Cl)c3)Oc3cc2cc(c3O[C@@H]2O[C@H](CO)[C@@H](O)[C@H](O)[C@H]2O[C@H]2C[C@](C)(N)[C@H](O)[C@H](C)O2)Oc2ccc(cc2Cl)[C@H]1O [vancomycin]			103.7	102.0	105.7	91.7	90.8	86.6	83.1		
oritavancin diphosphate			68.0	59.1	51.1	46.8	40.9	32.2	26.1		
